US20100267561A1, “HERBICIDAL PYRIDAZINONE DERIVATIVES” (priority 2007, published 2010)

Assays:
Type in all cases: in vivo
[1] = tested on: Italian ryegrass (Lolium multiflorum); experiment: Test B pre-/postemergence plant response; conditions: for Ryegrass, Italian plant response rating: 8 g ai/ha
Procedure, shortened: (§1)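 Visual scoring from 0 (no effect) to 100 (complete control) against untreated controls was done 13 to 15 days after greenhouse treatment. Chemicals were formulated in a surfactant-containing non-phytotoxic solvent and applied to soil preemergence or to 1- to 4-leaf (2-18 cm) plants postemergence.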

[2] = tested on: Russian thistle (Salsola iberica); experiment: Test B pre-/postemergence plant response; conditions: Preemergence; for Plant response rating, Russian Thistle: scale 0 to 100 (0 no effect, 100 complete control)
Procedure, shortened: as §1

[3] = tested on: bermudagrass (Cynodon dactylon); experiment: Test B pre-/postemergence plant response; conditions: for Bermudagrass plant response rating: 8 g ai/ha
Procedure, shortened: as §1

[4] = tested on: cocklebur (Xanthium strumarium); experiment: Test B pre-/postemergence plant response; conditions: for Cocklebur plant response rating: 8 g ai/ha
Procedure, shortened: as §1

[5] = tested on: eastern black (E.B.) nightshade (Solanum ptycanthum); experiment: Test B pre-/postemergence plant response; conditions: Preemergence
Procedure, shortened: as §1

[6] = tested on: goosegrass (Eleusine indica); experiment: Test B pre-/postemergence plant response; conditions: for Goosegrass plant response rating: 8 g ai/ha
Procedure, shortened: as §1

[7] = tested on: green foxtail (Setaria viridis); experiment: Test B pre-/postemergence plant response; conditions: for Foxtail, Green plant response rating: 8 g ai/ha
Procedure, shortened: as §1

[8] = tested on: johnsongrass (Sorghum halepense); experiment: Test B pre-/postemergence plant response; conditions: for Johnsongrass plant response rating: 8 g ai/ha
Procedure, shortened: as §1

[9] = tested on: large crabgrass (Digitaria sanguinalis); experiment: Test B pre-/postemergence plant response; conditions: for Crabgrass, Large plant response rating: 8 g ai/ha
Procedure, shortened: as §1

[10] = tested on: morningglory (Ipomoea coccinea); experiment: Test B pre-/postemergence plant response; conditions: for Morningglory plant response rating: 8 g ai/ha
Procedure, shortened: as §1

soybean (Glycine max) = experiment: Test B pre-/postemergence plant response
Procedure, shortened: as §1

[11] = tested on: surinam grass (Brachiaria decumbens); experiment: Test B pre-/postemergence plant response; conditions: for Surinam Grass plant response rating: 8 g ai/ha
Procedure, shortened: as §1

[12] = tested on: wheat (Triticum aestivum); experiment: Test B pre-/postemergence plant response; conditions: for Wheat plant response rating: 8 g ai/ha
Procedure, shortened: as §1

[13] = tested on: chickweed (Stellaria media); experiment: Test B postemergence plant response; conditions: for Plant response rating, Chickweed: Postemergence
Procedure, shortened: (§2)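 Emerged plants, 1- to 4-leaf stage, treated; greenhouse 13–15 d; eye-scored vs untreated controls (0–100 scale).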

[14] = tested on: windgrass (Apera spica-venti); experiment: Test B postemergence plant response; conditions: for Plant response rating, Windgrass: Postemergence
Procedure, shortened: as §2

[15] = tested on: winter barley (Hordeum vulgare); experiment: Test B postemergence plant response; conditions: for Plant response rating, Barley: Postemergence, scale 0 to 100, 0 no effect, 100 complete control
Procedure, shortened: as §2

[16] = Postemergence, 16 g ai/ha, scale 0 to 100
[17] = Postemergence, 31 g ai/ha, scale 0 to 100
[18] = Postemergence, 62 g ai/ha, scale 0 to 100, 0 no effect, 100 complete control
[19] = Preemergence, 16 g ai/ha, scale 0 to 100 (0 no effect, 100 complete control)
[20] = Preemergence, 31 g ai/ha, scale 0 to 100 (0 no effect, 100 complete control)
[21] = Preemergence, 62 g ai/ha, scale 0 to 100
[22] = Preemergence, 31 g ai/ha, 0 to 100 scale, 0 no effect, 100 complete control
[23] = 8 g ai/ha, postemergence, 0-100 scale
[24] = Preemergence, 62 g ai/ha, 0 to 100 scale, 0 no effect, 100 complete control
[25] = 62 g ai/ha, scale 0 to 100, 0 no effect, 100 complete control

Structure (SMILES): Cn1ncc(O)c(-n2nc(-c3ccc(Cl)cc3)cc2C2CC2)c1=O [Compound 45]
- Ryegrass, Italian plant response rating ([1]; postemergence, 0-100 scale): 70
- Plant response rating, Ryegrass, Italian [1, 16]: 90
- Plant response rating, Ryegrass, Italian [1, 17]: 100
- Plant response rating, Ryegrass, Italian [1, 18]: 100
- Plant response rating, Ryegrass, Italian [1, 19]: 90
- Plant response rating, Ryegrass, Italian [1, 20]: 100
- Plant response rating, Ryegrass, Italian [1, 21]: 100
- Ryegrass, Italian plant response rating ([1]; Preemergence, scale 0 to 100): 0
- Plant response rating, Russian Thistle ([2]; 16 g ai/ha): 0
- Plant response rating, Russian Thistle ([2]; 31 g ai/ha): 0
- Russian Thistle plant response rating ([2]; 8 g ai/ha, scale 0 to 100): 0
- Bermudagrass plant response rating ([3]; postemergence, 0-100 scale): 60
- Plant response rating, Bermudagrass [3, 16]: 95
- Plant response rating, Bermudagrass [3, 17]: 98
- Plant response rating, Bermudagrass [3, 18]: 98
- Bermudagrass plant response rating ([3]; Preemergence, scale 0 to 100 (0 no effect, 100 complete control)): 0
- Plant response rating, Bermudagrass [3, 19]: 0
- Plant response rating, Bermudagrass [3, 22]: 0
- Plant response rating, Bermudagrass [3, 21]: 0
- Cocklebur plant response rating ([4]; postemergence, 0-100 scale): 0
- Plant response rating, Cocklebur [4, 16]: 0
- Plant response rating, Cocklebur [4, 17]: 0
- Plant response rating, Cocklebur [4, 18]: 0
- Plant response rating, Cocklebur [4, 19]: 0
- Plant response rating, Cocklebur [4, 22]: 0
- Plant response rating, Cocklebur [4, 21]: 0
- Cocklebur plant response rating ([4]; Preemergence, scale 0 to 100): 0
- Plant response rating, Nightshade, E. B. ([5]; 16 g ai/ha, scale 0 to 100 (0 no effect, 100 complete control)): 0
- Plant response rating, Nightshade, E. B. ([5]; 31 g ai/ha, scale 0 to 100 (0 no effect, 100 complete control)): 0
- Plant response rating, Nightshade, E. B. ([5]; 62 g ai/ha, scale 0 to 100): 0
- Nightshade, E. B. plant response rating ([5]; 8 g ai/ha, scale 0 to 100): 0
- Goosegrass plant response rating ([6]; postemergence, 0-100 scale): 65
- Plant response rating, Goosegrass [6, 16]: 70
- Plant response rating, Goosegrass [6, 17]: 80
- Plant response rating, Goosegrass [6, 18]: 95
- Plant response rating, Goosegrass [6, 19]: 0
- Plant response rating, Goosegrass [6, 22]: 0
- Plant response rating, Goosegrass [6, 21]: 0
- Goosegrass plant response rating ([6]; Preemergence, scale 0 to 100): 0
- Foxtail, Green plant response rating ([7]; postemergence, 0-100 scale): 60
- Plant response rating, Foxtail, Green [7, 16]: 95
- Plant response rating, Foxtail, Green [7, 17]: 100
- Plant response rating, Foxtail, Green [7, 18]: 100
- Plant response rating, Foxtail, Green [7, 19]: 100
- Plant response rating, Foxtail, Green [7, 22]: 100
- Plant response rating, Foxtail, Green [7, 21]: 100
- Foxtail, Green plant response rating ([7]; Preemergence, scale 0 to 100): 100
- Johnsongrass plant response rating ([8]; postemergence, 0-100 scale): 60
- Plant response rating, Johnsongrass [8, 16]: 65
- Plant response rating, Johnsongrass [8, 17]: 65
- Plant response rating, Johnsongrass [8, 18]: 70
- Plant response rating, Johnsongrass [8, 19]: 20
- Plant response rating, Johnsongrass [8, 22]: 75
- Plant response rating, Johnsongrass [8, 21]: 98
- Johnsongrass plant response rating ([8]; Preemergence, scale 0 to 100): 15
- Crabgrass, Large plant response rating ([9]; postemergence, 0-100 scale): 65
- Plant response rating, Crabgrass, Large [9, 16]: 80
- Plant response rating, Crabgrass, Large [9, 17]: 100
- Plant response rating, Crabgrass, Large [9, 18]: 100
- Plant response rating, Crabgrass, Large [9, 19]: 0
- Plant response rating, Crabgrass, Large [9, 22]: 0
- Plant response rating, Crabgrass, Large [9, 21]: 0
- Crabgrass, Large plant response rating ([9]; Preemergence, scale 0 to 100): 0
- Morningglory plant response rating ([10]; postemergence, 0-100 scale): 0
- Plant response rating, Morningglory [10, 16]: 0
- Plant response rating, Morningglory [10, 17]: 0
- Plant response rating, Morningglory [10, 18]: 0
- Plant response rating, Morningglory [10, 19]: 0
- Plant response rating, Morningglory [10, 20]: 0
- Plant response rating, Morningglory [10, 21]: 0
- Morningglory plant response rating ([10]; Preemergence, scale 0 to 100): 0
- Soybean plant response rating (soybean (Glycine max); [23]): 0
- Plant response rating, Soybean (soybean (Glycine max); [16]): 0
- Plant response rating, Soybean (soybean (Glycine max); [17]): 0
- Plant response rating, Soybean (soybean (Glycine max); [18]): 0
- Plant response rating, Soybean (soybean (Glycine max); [19]): 0
- Plant response rating, Soybean (soybean (Glycine max); [21]): 65
- Surinam Grass plant response rating ([11]; postemergence, 0-100 scale): 75
- Plant response rating, Surinam Grass [11, 16]: 85
- Plant response rating, Surinam Grass [11, 17]: 98
- Plant response rating, Surinam Grass [11, 18]: 100
- Plant response rating, Surinam Grass [11, 19]: 20
- Plant response rating, Surinam Grass [11, 20]: 40
- Plant response rating, Surinam Grass [11, 24]: 90
- Surinam Grass plant response rating ([11]; Preemergence, scale 0 to 100): 0
- Wheat plant response rating ([12]; postemergence, 0-100 scale): 60
- Plant response rating, Wheat [12, 16]: 85
- Plant response rating, Wheat [12, 17]: 85
- Plant response rating, Wheat [12, 18]: 98
- Plant response rating, Wheat [12, 19]: 30
- Plant response rating, Wheat [12, 20]: 70
- Plant response rating, Wheat [12, 24]: 95
- Wheat plant response rating ([12]; Preemergence, scale 0 to 100): 0
- Chickweed plant response rating [13, 23]: 0
- Plant response rating, Chickweed ([13]; 16 g ai/ha, scale 0 to 100): 0
- Plant response rating, Chickweed ([13]; 31 g ai/ha, scale 0 to 100): 0
- Plant response rating, Chickweed [13, 25]: 0
- Windgrass plant response rating [14, 23]: 30
- Plant response rating, Windgrass ([14]; 16 g ai/ha, scale 0 to 100): 35
- Plant response rating, Windgrass ([14]; 31 g ai/ha, scale 0 to 100): 60
- Plant response rating, Windgrass [14, 25]: 65
- Barley plant response rating [15, 23]: 5
- Plant response rating, Barley ([15]; 16 g ai/ha): 5
- Plant response rating, Barley ([15]; 31 g ai/ha): 5
- Plant response rating, Barley ([15]; 62 g ai/ha): 5
